# “And” between values parts separate entries of the source, which are not always exact repeats. Identical values can stand only once.
# Assays:
# [1] = Stability in mouse plasma at 37°C; assay type: in vitro ADME; conditions: for [QST] mouse plasma at 37C, raw response / [QST], % of control: replicates; for [QST], % of control: mouse plasma
# Description: (§1) Hydroxamic acid–based compounds have been reported to display poor stability and high plasma clearance due to the presence of arylesterases and carboxylesterases in rodent blood ([34]). Therefore, we measured the stability of QST in mouse plasma and brain to determine whether drug degradation occurred during our sample preparations and equilibrium dialyses for the determination of unbound drug level (performed at 37°C). […] QST degradation was also observed in mouse brain homogenate (Figure 6B). However, perfusion of mice before brain collection prevented rapid drug degradation in the brain matrix. […] Degradation of QST can also be constrained if plasma and brain samples are processed at 4°C (Supplemental Figure 4A). All subsequent sample preparations were therefore performed on ice-cold baths to avoid degradation of QST in our PK analyses. […] The observed stability is probably due to the absence of esterases in human matrices, which are responsible for degradation of QST ([34]). Because we employed QST in several in vitro studies (Figures 1–4), the stability of the molecule was also tested in the cell media used to culture GSCs (neurobasal medium; see Methods).
# (§2) Stability Study in Mouse Plasma, Mouse Brain, Human Plasma, Human Brain, and Neural […]
# The stability of QST was determined in BALB/c mouse plasma, male nude athymic perfused and nonperfused mouse brain homogenate (1:9 w/v of PBS; pH 7.4), human brain (obtained from VRL Eurofins) homogenate (1:4 w/v of PBS; pH 7.4), pooled human plasma (Innovative Research), and neurobasal media. QST stock solutions (1 mM) were prepared in acetonitrile, subsequently diluted in a 40% methanol mixture, and added t o the matrices to make […]
# […] Then 50 or 30 µL of either plasma or brain homogenate containing QST were aliquoted into 1.5-mL microcentrifuge tubes (Eppendorf) and were incubated at either 4 °C or 37 °C for 0, 2, 4, 6, 12, or 24 hours (n = 3 at each time point).
# The stability of QST in mouse plasma was also tested at 0, 2, 8, 16, or 24 hours (n = 3 at each time point) in the presence of esterase inhibitors: 0.25 mM BNPP, 1mM dithiobis(2-nitrobenzoic acid) (DTNB), or 1.25 mM phenylmethylsulfonyl fluoride (PMSF). Plasma and brain homogenate samples were stored at −80 °C until LC-MS/MS analysis. […]
# BT145 cells = experiment: Ki67 / cleaved caspase-3 immunofluorescence; assay type: cell-based, human; conditions: QST at IC50, 72 hours, replicates
# Description: (§3) Cells were grown as adherent cultures on laminin -coated glass coverslips (Thermo Fisher Scientific) in GSC media. Twenty-four hours after plating, the cells were treated with QST or DMSO diluted in GSC media. Seventy-two hours after treatment, cells were fixed with 4% paraformaldehyde for 13 minutes at room temperature. Cells were washed with phosphate-buffered saline (PBS) and subsequently permeabilized and blocked with 5% normal goat serum (Sigma Aldrich) and 0.2% Triton X -100 in PBS (blocking solution) for 30 minutes at room temperature. The cells were incubated with primary antibodies overnight a t 4 °C in blocking solution. Primary antibodies used in this study included rabbit anti -Ki67 (1:1000; Abcam, 15580), rabbit anti-Cleaved Caspase 3 (1:400; Cell Signaling Technologies, 9661), rabbit anti - gamma H2AX (phospho Ser139; 1:1000, Abcam, ab11174), and mouse anti-human Nestin (1:500; Novus Biologicals, 10C2). The following day, the cells were washed with PBS 3 times, incubated with fluorophore-conjugated secondary antibodies at 1: 1000 dilutions (Alexa Fluor […]
# (§4) for 1 hour at room temperature, and washed in PBS 3 more times. Cells were mounted onto […]
# (§5) SuperFrost Plus microscope slides using Fluoroshield Mounting Medium containing DAPI (Abcam). Images were acquired using a confocal microscope (Leica Microsystems; TCS SP5) operated with Leica Application Suite software. The fraction of Ki67- and Cleaved Caspase 3– positive cells were counted from 5 independent images from each condition. The mean and standard deviation were calculated from 3 biological replicates for all control and QST-treated […]
# (§6) Analysis of immunostaining of cultured GSCs was performed on confocal stacks (with a step size of 0.5–1.5 μm) acquired with either a 20× water-immersion objective or a 63× oil-immersion objective on a laser-scanning confocal microscope (Leica Microsystems; TCS SP5) operated with Leica Application Suite software. All images were processed using ImageJ software (National Institutes of Health). […]
# (§7) mL of ice cold 70% ethanol, added dropwise while vortexing. Cells were fixed on ice for 30 minutes and washed twice with 1× PBS. Cells were then resuspended in 500 μL of propidium iodide/RNAse staining buffer (BD Biosciences, 550825) for 15 minutes at room temperature before analysis. Data from all the samples were obtained using a Fortessa flow cytometer (BD […]
# GB126 cells = experiment: Ki67 / cleaved caspase-3 immunofluorescence; assay type: cell-based, human; conditions: QST at IC50, 72 hours, replicates
# Description: as §3, §4, §5, §6, §7
# [2] = Stability in neurobasal cell culture medium at 37°C; assay type: in vitro ADME; conditions: for %stability: neurobasal cell media, 37C
# Description: as §1, §2
# The stability of QST was determined in BALB/c mouse plasma, male nude athymic perfused and nonperfused mouse brain homogenate (1:9 w/v of PBS; pH 7.4), human brain (obtained from VRL Eurofins) homogenate (1:4 w/v of PBS; pH 7.4), pooled human plasma (Innovative Research), and neurobasal media. QST stock solutions (1 mM) were prepared in acetonitrile, subsequently diluted in a 40% methanol mixture, and added t o the matrices to make final concentrations of 100 nM or 10 nM. Then 50 or 30 µL of either plasma or brain homogenate containing QST were aliquoted into 1.5-mL microcentrifuge tubes (Eppendorf) and were incubated at either 4 °C or 37 °C for 0, 2, 4, 6, 12, or 24 hours (n = 3 at each time point). […]
# Plasma and brain […]
# homogenate samples were stored at −80 °C until LC-MS/MS analysis. […]
compound,measurement,setting,value
"Cn1cc(CNCC2CCN(c3ncc(C(=O)NO)cn3)CC2)c2ccccc21 [QST, quisinostat]","[QST] mouse plasma at 37C, raw response, Average","[1]; 500 nM, Time 0",1.911
same,"[QST] mouse plasma at 37C, raw response","[1]; 500 nM, Time 0",1.823 and 1.9096 and 2.002
same,"[QST] mouse plasma at 37C, raw response, Average","[1]; 500 nM, Time 1",0.7582
same,"[QST] mouse plasma at 37C, raw response","[1]; 500 nM, Time 1",0.7296 and 0.7817 and 0.7634
same,"[QST] mouse plasma at 37C, raw response, Average","[1]; 500 nM, Time 2",0.2892
same,"[QST] mouse plasma at 37C, raw response","[1]; 500 nM, Time 2",0.2668 and 0.314 and 0.2868
same,"[QST] mouse plasma at 37C, raw response, Average","[1]; 500 nM, Time 4",0.02578
same,"[QST] mouse plasma at 37C, raw response, Average","[1]; 500 nM, Time 8",0.00189
same,"[QST] mouse plasma at 37C, raw response","[1]; 500 nM, Time 8",0.00167 and 0.04867 and 0.00211
same,half-life,"[1]; BALB/c, mouse, plasma, 37°C, 8-hour incubation",~1 h
same,"[QST] mouse plasma at 37C, raw response",[1]; Time 4,0.02689 and 0.02585 and 0.0246
same,"[QST], % of control","[1]; 10 nM, Time 6 hrs",2.9% and 3.1% (2×)
same,"[QST], % of control","[1]; 10 nM, Time 12 hrs",2.6% and 2% and 2.1%
same,"[QST], % of control","[1]; 100 nM, Time 6 hrs",1.4% (2×) and 1.3%
same,"[QST], % of control","[1]; 100 nM, Time 12 hrs",0.1% (2×) and 2.5%
same,% CC-3 + / DAPI,BT145 cells,11.8845% and 6.461% and 13.5339%
same,% Ki67+ / DAPI,BT145 cells,26.1653% and 29.1973% and 26.725%
same,% CC-3 + / DAPI,GB126 cells,18.5009% and 22.4947% and 8.724%
same,% Ki67+ / DAPI,GB126 cells,8.013% and 11.9177% and 10.7184%
same,%stability,"[2]; 10 nM, time 0 hrs (15 minutes used as zero hour time point)",101.6% and 100.2% and 98.2%
same,%stability,"[2]; 10 nM, time 0 hrs (15 minutes used as zero hour time point), mean",100.0%
same,%stability,"[2]; 10 nM, time 2 hrs",102.7% and 80.7% and 97.1%
same,%stability,"[2]; 10 nM, time 2 hrs, mean",93.5%
same,%stability,"[2]; 10 nM, time 5 hrs",88.0% and 90.7% and 90.1%
same,%stability,"[2]; 10 nM, time 5 hrs, mean",89.6%
same,%stability,"[2]; 10 nM, time 24 hrs",69.7% and 66.1%
same,%stability,"[2]; 10 nM, time 24 hrs, mean",68.5%
same,%stability,"[2]; 100 nM, time 0 hrs (15 minutes used as zero hour time point)",85.1% and 110.5% and 104.4%
same,%stability,"[2]; 100 nM, time 0 hrs (15 minutes used as zero hour time point), mean",100.0%
same,%stability,"[2]; 100 nM, time 2 hrs",109.4% and 82.9% and 110.7%
same,%stability,"[2]; 100 nM, time 2 hrs, mean",101.0%
same,%stability,"[2]; 100 nM, time 5 hrs",95.9% and 77.8% and 80.7%
same,%stability,"[2]; 100 nM, time 5 hrs, mean",84.8%
same,%stability,"[2]; 100 nM, time 24 hrs",73.1% and 67.2% and 68.6%
same,%stability,"[2]; 100 nM, time 24 hrs, mean",69.6%
same,QST intact in cell media,"[2]; neurobasal medium, 24-hour incubation, 37°C",approximately 70%
